Laboratory results as given in patent US10457709B2, “Antimicrobial peptides, their variants and uses” (priority 2015, dated 2019).
Read-outs that look alike come from different tables or passages of the source. Square brackets hold non-standard residues; d marks the D form. Peptide text beside a SMILES is read from it.

Tests used:
[1] = system: Staphylococcus aureus clinical strains; format: cell-based; parameters: Minimum inhibitory concentration: unit: μg/ml; settings: microdilution, Muller Hinton broth-cation adjusted, 0.02% BSA, 0.2% acetic acid
Outline: (§1)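 MIC recorded as the lowest peptide level, within 0.125–128 μg/ml, that left no visible growth after 20–24 h at 37° C. Inoculum was 5.0×10^5 cfu/ml of clinical isolates. Medium was potato dextrose broth for yeasts and Mueller Hinton broth for bacteria, in a broth microdilution format.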

[2] = system: Proteus mirabilis clinical strains; format: cell-based; parameters: Minimum inhibitory concentration: unit: μg/ml; settings: microdilution, Muller Hinton broth-cation adjusted, 0.02% BSA, 0.2% acetic acid
Outline: as §1

[3] = system: Enterobacter cloacae clinical strains; format: cell-based; parameters: Minimum inhibitory concentration: unit: μg/ml; settings: microdilution, Muller Hinton broth-cation adjusted, 0.02% BSA, 0.2% acetic acid
Outline: as §1

[4] = system: Serratia marcescens clinical strains; format: cell-based; parameters: Minimum inhibitory concentration: unit: μg/ml; settings: microdilution, Muller Hinton broth-cation adjusted, 0.02% BSA, 0.2% acetic acid
Outline: as §1

[5] = system: Streptococcus pneumoniae clinical strains; format: cell-based; parameters: Minimum inhibitory concentration: unit: μg/ml; settings: microdilution, Muller Hinton broth-cation adjusted, 0.02% BSA, 0.2% acetic acid
Outline: as §1

[6] = system: Candida albicans clinical strains; assay: MIC, clinical yeast strains; format: cell-based; parameters: unit: μg/ml
Outline: as §1

[7] = system: C. parapsilosis clinical strains; assay: MIC, clinical yeast strains; format: cell-based, Candida parapsilosis; parameters: unit: µg/ml
Outline: as §1

[8] = system: Pseudomonas aeruginosa clinical strains; format: cell-based; settings: microdilution, Muller Hinton broth-cation adjusted, 0.02% BSA, 0.2% acetic acid
Outline: as §1

[9] = system: Escherichia coli clinical strains; format: cell-based; settings: microdilution, Muller Hinton broth-cation adjusted, 0.02% BSA, 0.2% acetic acid
Outline: as §1

[10] = system: Klebsiella pneumoniae clinical strains; format: cell-based; settings: microdilution, Muller Hinton broth-cation adjusted, 0.02% BSA, 0.2% acetic acid
Outline: as §1

[11] = system: C. quillermondiae clinical strains; assay: MIC, clinical yeast strains; format: cell-based, Candida quillermondiae; parameters: unit: μg/ml; settings: C. quillermondiae clinical yeast strain 1
Outline: as §1

[12] = system: C. glabrata clinical strains; assay: MIC, clinical yeast strains; format: cell-based, Candida glabrata; parameters: unit: µg/ml
Outline: as §1

## CC(C)C[C@@H](NC(=O)[C@@H](CCCCN)NC(=O)[C@@H](CCCCN)NC(=O)[C@@H](Cc1ccccc1)NC(=O)[C@@H](CC(C)C)NC(=O)[C@@H](Cc1c[nH]c2ccccc12)NC(=O)[C@@H](CCCNC(=N)N)NC(=O)[C@@H](Cc1c[nH]c2ccccc12)NC(=O)[C@@H](CCCCN)NC(=O)[C@@H](CCCNC(=N)N)NC(=O)[C@H](N)CCCCN)C(=O)O [Chain310D] (H-[dK][dR][dK][dW][dR][dW][dL][dF][dK][dK][dL]-OH)
[1]; Staphylococcus aureus clinical strain 1
  Minimum inhibitory concentration: 8
[1]; Staphylococcus aureus clinical strain 2
  Minimum inhibitory concentration: 16
[1]; Staphylococcus aureus clinical strain 3
  Minimum inhibitory concentration: 8
[1]; Staphylococcus aureus clinical strain 4
  Minimum inhibitory concentration: 8
[1]; Staphylococcus aureus clinical strain 5
  Minimum inhibitory concentration: 4
[2]; Proteus mirabilis clinical strain 1
  Minimum inhibitory concentration: >128
[2]; Proteus mirabilis clinical strain 2
  Minimum inhibitory concentration: >128
[2]; Proteus mirabilis clinical strain 3
  Minimum inhibitory concentration: >128
[2]; Proteus mirabilis clinical strain 4
  Minimum inhibitory concentration: >128
[2]; Proteus mirabilis clinical strain 5
  Minimum inhibitory concentration: >128
[3]; Enterobacter cloacae clinical strain 1
  Minimum inhibitory concentration: 128
[3]; Enterobacter cloacae clinical strain 2
  Minimum inhibitory concentration: 64
[3]; Enterobacter cloacae clinical strain 3
  Minimum inhibitory concentration: 16
[3]; Enterobacter cloacae clinical strain 4
  Minimum inhibitory concentration: 8
[3]; Enterobacter cloacae clinical strain 5
  Minimum inhibitory concentration: 16
[4]; Serratia marcescens clinical strain 1
  Minimum inhibitory concentration: >128
[4]; Serratia marcescens clinical strain 2
  Minimum inhibitory concentration: >128
[4]; Serratia marcescens clinical strain 3
  Minimum inhibitory concentration: >128
[4]; Serratia marcescens clinical strain 4
  Minimum inhibitory concentration: >128
[4]; Serratia marcescens clinical strain 5
  Minimum inhibitory concentration: >128
[5]; Streptococcus pneumoniae clinical strain 1
  Minimum inhibitory concentration: 128
[5]; Streptococcus pneumoniae clinical strain 2
  Minimum inhibitory concentration: 128
[5]; Streptococcus pneumoniae clinical strain 3
  Minimum inhibitory concentration: 128
[5]; Streptococcus pneumoniae clinical strain 4
  Minimum inhibitory concentration: 128
[5]; Streptococcus pneumoniae clinical strain 5
  Minimum inhibitory concentration: 64
[6]; Candida albicans clinical yeast strain 1
  Minimum inhibitory concentration: 16
[6]; Candida albicans clinical yeast strain 2
  Minimum inhibitory concentration: 16
[6]; Candida albicans clinical yeast strain 3
  Minimum inhibitory concentration: 16
[6]; Candida albicans clinical yeast strain 4
  Minimum inhibitory concentration: 16
[6]; Candida albicans clinical yeast strain 5
  Minimum inhibitory concentration: 16
[7]; C. parapsilosis clinical yeast strain 1
  Minimum inhibitory concentration: 64
[7]; C. parapsilosis clinical yeast strain 2
  Minimum inhibitory concentration: 64
[7]; C. parapsilosis clinical yeast strain 3
  Minimum inhibitory concentration: 64
[7]; C. parapsilosis clinical yeast strain 4
  Minimum inhibitory concentration: 16
[8]; Pseudomonas aeruginosa clinical strain 1
  Minimum inhibitory concentration: 8
[8]; Pseudomonas aeruginosa clinical strain 2
  Minimum inhibitory concentration: 16
[8]; Pseudomonas aeruginosa clinical strain 3
  Minimum inhibitory concentration: 16
[8]; Pseudomonas aeruginosa clinical strain 4
  Minimum inhibitory concentration: 8
[8]; Pseudomonas aeruginosa clinical strain 5
  Minimum inhibitory concentration: 4
[9]; Escherichia coli clinical strain 1
  Minimum inhibitory concentration: 4
[9]; Escherichia coli clinical strain 2
  Minimum inhibitory concentration: 32
[9]; Escherichia coli clinical strain 3
  Minimum inhibitory concentration: 16
[9]; Escherichia coli clinical strain 4
  Minimum inhibitory concentration: 16
[9]; Escherichia coli clinical strain 5
  Minimum inhibitory concentration: 16
[10]; Klebsiella pneumoniae clinical strain 1
  Minimum inhibitory concentration: 64
[10]; Klebsiella pneumoniae clinical strain 2
  Minimum inhibitory concentration: 64
[10]; Klebsiella pneumoniae clinical strain 3
  Minimum inhibitory concentration: 128
[10]; Klebsiella pneumoniae clinical strain 4
  Minimum inhibitory concentration: 64
[10]; Klebsiella pneumoniae clinical strain 5
  Minimum inhibitory concentration: 32
[11]
  Minimum inhibitory concentration: 8
[12]; C. glabrata clinical yeast strain 1
  Minimum inhibitory concentration: 16
[12]; C. glabrata clinical yeast strain 2
  Minimum inhibitory concentration: 16
[12]; C. glabrata clinical yeast strain 3
  Minimum inhibitory concentration: 128
[12]; C. glabrata clinical yeast strain 4
  Minimum inhibitory concentration: 128
